From publication PMC12881670, “Investigation into ligand selectivity and bias at the formyl peptide receptor family” (The Journal of Pharmacology and Experimental Therapeutics, 2025)
“Also recorded” adds a separate entry of the source. Where a SMILES comes first, the peptide text is derived from it. Where no end group is shown, it is not given here. The star is where a group is joined. For = O=C*

Key:
Type in all cases: cell-based
Mm_Fpr1 = molecular target: T1, Mm_Fpr1 (Mus musculus, UniProt P33766); experiment: Internalization of FLAG-tagged receptors by flow cytometry; design: Emax: dose or concentration left out as unconfirmed; details: for agonist-induced internalization (words): Mm_Fpr1, 30 min, relative to 1 μM WKYMVm
T1 construct: expressed in transfected cells
T1 sequence (P33766 1-364): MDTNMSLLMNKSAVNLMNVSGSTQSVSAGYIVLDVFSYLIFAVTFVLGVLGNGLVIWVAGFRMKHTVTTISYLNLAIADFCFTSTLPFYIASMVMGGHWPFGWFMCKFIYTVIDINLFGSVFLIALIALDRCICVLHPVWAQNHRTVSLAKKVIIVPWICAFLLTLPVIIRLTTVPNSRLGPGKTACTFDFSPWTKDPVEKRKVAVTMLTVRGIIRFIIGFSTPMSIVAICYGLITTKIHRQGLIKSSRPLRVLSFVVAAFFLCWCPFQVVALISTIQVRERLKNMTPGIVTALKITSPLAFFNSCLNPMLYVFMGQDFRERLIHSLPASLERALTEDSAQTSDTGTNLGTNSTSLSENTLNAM
Summary of the method: (§1)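 Surface FLAG-receptors labelled with Alexa Fluor-conjugated M1 anti-FLAG for 30 min at 37 °C, then exposed to ligand; surface antibody stripped with PBS/0.04% EDTA and internalised fluorescence read by flow cytometry (5000 events), constitutive endocytosis subtracted. Curves fitted by log(agonist) vs response, 3 parameters.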

Mm_Fpr2 [1] = molecular target: T2, Mm_Fpr2 (Mus musculus, UniProt O88536); experiment: as above; design: Emax: dose or concentration left out as unconfirmed; details: for Emax (%), internalization, Mean: % of internalization to WKYMVm (1 mM in legend, 1 μM in text), Mm_Fpr2, 30 minutes; for Log EC50 (M), internalization, Mean: HEK293 stably expressing FLAG-Mm_Fpr2, ligand 30 minutes; for agonist-induced internalization (words): Mm_Fpr2, 30 min, relative to 1 μM WKYMVm
T2 construct: expressed in transfected cells
T2 sequence (O88536 1-351): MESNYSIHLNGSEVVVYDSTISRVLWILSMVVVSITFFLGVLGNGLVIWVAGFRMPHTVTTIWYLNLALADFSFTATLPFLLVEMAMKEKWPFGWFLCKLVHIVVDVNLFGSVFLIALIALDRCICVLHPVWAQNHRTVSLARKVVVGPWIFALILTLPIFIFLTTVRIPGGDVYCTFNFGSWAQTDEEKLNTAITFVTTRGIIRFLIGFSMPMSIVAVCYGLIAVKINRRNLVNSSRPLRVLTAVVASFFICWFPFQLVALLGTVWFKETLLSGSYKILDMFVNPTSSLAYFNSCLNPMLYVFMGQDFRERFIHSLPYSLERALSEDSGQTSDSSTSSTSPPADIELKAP
Summary of the method: as §1

Hs_FPR2 [2] = molecular target: T3, Hs_FPR2 (Homo sapiens, UniProt P25090); experiment: ERK1/2 phosphorylation by Western blotting; design: Emax: dose or concentration left out as unconfirmed; details: for Log EC50 (M) / EC50: log of EC50, phosphorylation of ERK1/2, HEK293 stable cells; for Log EC50 (M) / Emax (%) / EC50: mean, ND = no pERK signal detected; for Emax (%): phospho-ERK, % of 1 μM WKYMVm
T3 construct: expressed in transfected cells
T3 sequence (P25090 1-351): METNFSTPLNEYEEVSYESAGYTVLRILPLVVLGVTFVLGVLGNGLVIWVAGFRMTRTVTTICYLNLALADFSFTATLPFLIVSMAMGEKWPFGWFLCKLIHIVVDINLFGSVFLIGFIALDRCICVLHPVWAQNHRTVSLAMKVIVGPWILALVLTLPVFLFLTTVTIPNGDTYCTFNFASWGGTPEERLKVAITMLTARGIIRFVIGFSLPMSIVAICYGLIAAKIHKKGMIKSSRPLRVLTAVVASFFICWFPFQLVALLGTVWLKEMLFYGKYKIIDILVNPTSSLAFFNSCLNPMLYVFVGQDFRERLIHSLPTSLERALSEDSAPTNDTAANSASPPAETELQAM

Mm_Fpr2 [3] = molecular target: T2, Mm_Fpr2; experiment: ERK1/2 phosphorylation by Western blotting; design: Emax: dose or concentration left out as unconfirmed; details: for Log EC50 (M) / EC50: log of EC50, phosphorylation of ERK1/2, HEK293 stable cells; for Log EC50 (M) / Emax (%) / EC50: mean, ND = no pERK signal detected; for Emax (%): phospho-ERK, % of 1 μM WKYMVm
Hs_FPR1 = molecular target: T4, Hs_FPR1 (Homo sapiens, UniProt P21462); experiment: ERK1/2 phosphorylation by Western blotting; design: Emax: dose or concentration left out as unconfirmed; details: for Log EC50 (M) / EC50: log of EC50, phosphorylation of ERK1/2, HEK293 stable cells; for Log EC50 (M) / Emax (%) / EC50: mean, ND = no pERK signal detected; for Emax (%): phospho-ERK, % of 1 μM WKYMVm
T4 construct: expressed in transfected cells
T4 sequence (P21462 1-350): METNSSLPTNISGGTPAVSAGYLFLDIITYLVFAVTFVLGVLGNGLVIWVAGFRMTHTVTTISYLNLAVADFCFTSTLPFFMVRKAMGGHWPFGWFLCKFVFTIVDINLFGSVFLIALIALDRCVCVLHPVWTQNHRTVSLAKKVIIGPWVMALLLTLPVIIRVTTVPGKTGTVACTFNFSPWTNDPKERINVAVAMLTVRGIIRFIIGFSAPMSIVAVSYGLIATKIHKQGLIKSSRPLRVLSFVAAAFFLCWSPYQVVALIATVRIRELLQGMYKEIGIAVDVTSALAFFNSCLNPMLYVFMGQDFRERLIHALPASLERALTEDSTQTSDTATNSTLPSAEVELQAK

Hs_FPR2 [4] = molecular target: T3, Hs_FPR2; experiment: BRET receptor-RLuc8 interaction with Arrestin 3-YFP; details: for Emax (%) / Log EC50 (M): Arrestin 3 BRET, mean, ND = no interaction detected; for Emax (%): % of response to 1 μM WKYMVm; for Log EC50 (M): log of EC50, HEK293 transient, 10 min
Summary of the method: (§2)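 Cells were transiently cotransfected with C-terminal RLuc8-tagged FPR and Venus-mGsi or YFP-Arrestin 3 (1:4), then replated at 24 h and cultured a further 24–48 h. After 30 min in HBSS, coelenterazine h (5 μM final) was added 5 min before compound, with a 10 min incubation at 37 °C. Background-subtracted acceptor/donor ratio (N-BRET) was fitted by 3-parameter log(agonist) regression.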

Hs_FPR2 [5] = molecular target: T3, Hs_FPR2; experiment: BRET receptor-RLuc8 interaction with Venus-mGsi; details: for Log EC50 (M): log of EC50, HEK293 transient, 10 min; for Log EC50 (M) / Emax (%): mGsi BRET, mean, ND = no interaction detected; for Emax (%): % of response to 1 μM WKYMVm
Summary of the method: as §2

[6] = Hs_FPR2-Rluc8 donor, Arrestin 3-YFP acceptor, read-out: EC50 arrestin recruitment, BRET

With Cc1cccc(-c2oc(C)nc2C(=O)Nc2cnn(Cc3nc(C(C)(F)F)co3)n2)c1 [ACT-389949] the “agonist-induced internalization (words)” value (Mm_Fpr1) was “only at 10 μM”, the “Emax (%), internalization, Mean” value (Mm_Fpr2 [1]) was 118.5% and the “Log EC50 (M), internalization, Mean” value (Mm_Fpr2 [1]) was −6.539 M. The “agonist-induced internalization (words)” value (Mm_Fpr2 [1]) was “full agonist”, the “fold less potency at Mm_Fpr2, internalization” value (Mm_Fpr2 [1]; equipotent to WKYMVm at Hs_FPR2) was 28 fold and the “Log EC50 (M)” value (Hs_FPR2 [2]) was −7.723 M. For the same compound, the “Emax (%)” value (Hs_FPR2 [2]) was 81.57%, the “Log EC50 (M)” value (Mm_Fpr2 [3]) was −8.394 M and the “Emax (%)” value (Mm_Fpr2 [3]) was 136.1%. The “Log EC50 (M)” value (Hs_FPR1) was −7.37 M, the “Emax (%)” value (Hs_FPR1) was 112.1% and the “Emax (%)” value (Hs_FPR2 [4]) was 73.56%. The EC50 (Hs_FPR2 [4]; [6]) was 18 nM, the “Log EC50 (M)” value (Hs_FPR2 [4]) was −7.74 M and the “Log EC50 (M)” value (Hs_FPR2 [5]) was −7.80 M. The “Emax (%)” value (Hs_FPR2 [5]) was 69.25%.
COc1cc(F)c([C@@H]2CNC(=O)[C@H]2NC(=O)Nc2ccccc2)c(F)c1 [BMS-986235] was tested, and the “agonist-induced internalization (words)” value (Mm_Fpr1) was “failed to show appreciable internalization; also recorded: unable to induce any measurable internalization”, the Emax (Mm_Fpr2 [1]) was 88% and the “times more potent at Mm_Fpr2 than Hs_FPR2, internalization” value (Mm_Fpr2 [1]) was 9 times. The “agonist-induced internalization (words)” value (Mm_Fpr2 [1]) was “robust internalization”, the EC50 (Mm_Fpr2 [1]; read-out: Log EC50 (M), internalization, Mean (converted)) was 1.03e-07 M and the Emax (Hs_FPR2 [2]) was 116%. For the same compound, the EC50 (Hs_FPR2 [2]) was 679 nM, the Emax (Mm_Fpr2 [3]) was 116% and the EC50 (Mm_Fpr2 [3]) was 3.78 nM. The EC50 (Hs_FPR1) was 16200 nM, the Emax (Hs_FPR2 [4]) was 85.1% and the EC50 (Hs_FPR2 [4]; [6]) was 39.9 nM. It also gave an EC50 (Hs_FPR2 [5]) of 75.9 nM and an Emax (Hs_FPR2 [5]) of 64.4%.
In the case of CCCCOc1ccc(C(=O)NN2C(=O)c3ccccc3NC2c2ccc(OC)cc2)cc1 (stereo not shown) [QuinC1], the “Emax (%), internalization, Mean” value (Mm_Fpr1; % of internalization to WKYMVm (1 mM in legend, 1 μM in text), Mm_Fpr1, 30 minutes, ND denotes no internalization measured) is reported as 66.27%, the “Log EC50 (M), internalization, Mean” value (Mm_Fpr1; Log EC50, HEK293 stably expressing FLAG-Mm_Fpr1, ligand 30 minutes, ND denotes no internalization measured) is reported as −6.120 M and the “agonist-induced internalization (words)” value (Mm_Fpr1) is reported as “partial agonists”. The “Emax (%), internalization, Mean” value (Mm_Fpr2 [1]) was 41.84%, the “Log EC50 (M), internalization, Mean” value (Mm_Fpr2 [1]) was −7.106 M and the “agonist-induced internalization (words)” value (Mm_Fpr2 [1]) was “partial agonists”. For the same compound, the “Log EC50 (M)” value (Hs_FPR2 [2]) was −5.882 M, the “Emax (%)” value (Hs_FPR2 [2]) was 101.7% and the “Log EC50 (M)” value (Mm_Fpr2 [3]) was −4.94 M. The “Emax (%)” value (Mm_Fpr2 [3]) was 381.2%, the “Log EC50 (M)” value (Hs_FPR1) was −5.86 M and the “Emax (%)” value (Hs_FPR1) was 92.57%. For the same compound, the “Emax (%)” value (Hs_FPR2 [4]) was 40.71%, the “Log EC50 (M)” value (Hs_FPR2 [4]) was −5.82 M and the “Log EC50 (M)” value (Hs_FPR2 [5]) was −6.06 M. The “Emax (%)” value (Hs_FPR2 [5]) was 34.75%.
In the case of CSCC[C@H](NC(=O)[C@H](Cc1ccc(O)cc1)NC(=O)[C@H](CCCCN)NC(=O)[C@@H](N)Cc1c[nH]c2ccccc12)C(=O)N[C@H](C(=O)N[C@H](CCSC)C(N)=O)C(C)C [WKYMVm], the Emax (Mm_Fpr1) is reported as 108%, the Emax (Mm_Fpr2 [1]) is reported as 102% and the Emax (Hs_FPR2 [2]) is reported as 93.8%. It also gave an Emax (Mm_Fpr2 [3]) of 118%, an Emax (Hs_FPR1) of 104% and an Emax (Hs_FPR2 [4]) of 102%. It also gave an Emax (Hs_FPR2 [5]) of 100%.
In the case of CSCC[C@H](NC=O)C(=O)N[C@@H](CC(C)C)C(=O)N[C@@H](Cc1ccccc1)C(=O)N[C@@H](CCCCN)C(=O)O [fMLFK, fMet-Leu-Phe-Lys] (For-MLFK-OH), the EC50 (Mm_Fpr1) is reported as 6110 nM, the Emax (Mm_Fpr1) is reported as 179% and the EC50 (Mm_Fpr2 [1]) is reported as 1.16e-05 M. For the same compound, the Emax (Mm_Fpr2 [1]) was 81.6%, the Emax (Hs_FPR2 [2]) was 74.3% and the EC50 (Hs_FPR2 [2]) was 1320 nM. The Emax (Mm_Fpr2 [3]) was 176%, the EC50 (Mm_Fpr2 [3]) was 1240 nM and the Emax (Hs_FPR1) was 112%. The EC50 (Hs_FPR1) was 6.85 nM, the Emax (Hs_FPR2 [4]) was 92.7% and the EC50 (Hs_FPR2 [4]; read-out: Log EC50 (converted)) was 36300 nM. It also gave an EC50 (Hs_FPR2 [5]) of 26900 nM and an Emax (Hs_FPR2 [5]) of 80.7%.
In the case of LESIFRSLLFRVM [MMK1], the Emax (Mm_Fpr1) is reported as 11.6%, the “agonist-induced internalization (words)” value (Mm_Fpr1) is reported as “failed to show appreciable internalization” and the “agonist-induced internalization (words)” value (Mm_Fpr1; listed as MMK-1) is reported as “unable to induce internalization”. For the same compound, the Emax (Mm_Fpr2 [1]) was 8.68%, the “agonist-induced internalization (words)” value (Mm_Fpr2 [1]) was “unable to induce internalization” and the Emax (Hs_FPR2 [2]) was 114%. The “Log EC50 (M)” value (Hs_FPR2 [2]) was −8.646 M, the Emax (Mm_Fpr2 [3]) was 86.6% and the “Log EC50 (M)” value (Mm_Fpr2 [3]) was −6.482 M. For the same compound, the Emax (Hs_FPR1) was 40.1%, the “Log EC50 (M)” value (Hs_FPR1) was −6.84 M and the Emax (Hs_FPR2 [4]) was 59.1%. For the same compound, the “Log EC50 (M)” value (Hs_FPR2 [4]) was −7.03 M, the Emax (Hs_FPR2 [5]) was 38.7% and the “Log EC50 (M)” value (Hs_FPR2 [5]) was −7.17 M.
